Laboratory results from patent US10258691B2 (SignPath Pharma Inc., priority 2014, dated 2019).
Several values for one entry are separate records, joined by “and”; a condition that tells them apart may be missing. Identical values can stand only once. Entries after “also recorded” stand apart in the source; their conditions may differ. Counter-ions that a name gives are not always drawn.

What was measured:
hERG [1] = target: T1, hERG (Homo sapiens, UniProt Q12809); assay: Whole-cell patch-clamp, protective effect of 10:0-18:0 Lyso PG and 14:0 EGPG against hERG inhibition by Nilotinib; type: cell-based; set-up: expressed in transfected cells; host or cells: HEK 293, stably transfected with the hERG gene (HEK-hERG); conditions: for protective effect against hERG inhibition by Nilotinib (in words): PLs/Nilo ratio 9:1; for inhibition of the hERG tail current (in words): lipid alone or Nilotinib 0.5 μg/mL formulated with lipid […] (9:1)
Procedure: The purpose of this study is to evaluate in vitro the protective effect of 10:0 Lyso PG, 12:0 Lyso PG, 14:0 Lyso PG, 16:0 Lyso PG, 18:0 Lyso PG and 14:0 EGPG on the rapidly activating delayed-rectifier potassium selective current (IK) generated under normoxic conditions in stably transfected Human Embryonic Kidney cells (HEK 293 cells).
The test samples were prepared as follows. […] The solution was vortexed for 10 minutes before being used in the patch-clamp assay.
Test performed: Whole-cell patch-clamp current acquisition and analysis. Temperature: 35±2° C. Original data acquisition design: Acquisition Rate(s): 1.0 kHz.
Patch-clamp current recording. […] Isolated cells were plated into 2-mL experimental chambers, mounted on the platform of an inverted microscope. The cells were superfused with external solution (in mM: NaCl 140.0, KCl 5.0, CaCl2 1.8, MgCl2 1.0, HEPES 10.0, dextrose 10.0, pH 7.4±0.05). A 2-10 MΩ resistance pipette was filled with the pipette solution (in mM: KCl 140.0, MgCl2 1.0, Mg-ATP 4.0, EGTA 5.0, HEPES 10.0, sucrose 10.0, pH 7.4±0.05), and brought to contact the external membrane of a single cell.
Application of test samples: 5 minutes of exposure to each concentration in presence of closed circuit perfusion (2 mL/min). 5 minutes for washout periods in presence of a flow-through perfusion (2 mL/min) in addition to a closed circuit perfusion (2 mL/min). […] Cells were under continuous stimulation of the pulses protocol throughout the studies and cell currents were recorded after 5 minutes of exposure to each condition.
Statistical analysis: Statistical comparisons were made using paired Student's t-tests, comparing each treatment period with its corresponding value at the baseline condition. The currents recorded after the exposure of each test sample were compared to the currents recorded in baseline conditions. Differences were considered significant when p≤0.05.
Effect of the Test Samples on whole-cell IKr hERG currents. Whole-cell currents elicited during a voltage pulse were recorded in baseline conditions and following the application of the selected concentration of test sample. The cells were depolarized for one second from the holding potential (−80 mV) to a maximum value of +40 mV, starting at −40 mV and progressing in 10 mV increments. The membrane potential was then repolarized to −55 mV for one second, and finally returned to −80 mV.
Whole-cell tail current amplitude was measured at a holding potential of −55 mV, following activation of the current from −40 to +40 mV. Current amplitude was measured at the maximum (peak) of this tail current. Current density was obtained by dividing current amplitude by cell capacitance measured prior to capacitive transient minimization.
Current run-down and solvent effect correction. All data points presented in this example were corrected for solvent effect and time-dependent current run-down. Current run-down and solvent effects were measured simultaneously by applying the study design in test sample-free conditions over the same time frame as was done with the test sample. The loss in current amplitude measured during these so-called vehicle studies (representing both solvent effects and time-dependent run-down) was subtracted from the loss of amplitude measured in the presence of the test sample to isolate the effect of the test sample, apart from the effect of the solvent and the inevitable run-down in current amplitude over time.

hERG [2] = target: T1, hERG; assay: Whole-cell patch-clamp, protective effect of DMPC, DMPG, DMPC/DMPG, LysoPG and LysoPC against hERG inhibition by Nilotinib; conditions: for inhibition of the hERG tail current density (in words) / Corrected Normalized Current Density / Normalized Current Density: HEK 293; for inhibition of the hERG tail current density (in words): lipid alone or Nilotinib 0.1 μM formulated in aqueous solution with lipid; for Corrected Normalized Current Density: corrected for solvent effect and current run-down, baseline 1.000; for Corrected Normalized Current Density / Normalized Current Density: Nilotinib 0.1 μM (alone in DMSO, with lipid in aqueous solution), 14:0 LysoPG […]; for Normalized Current Density: hERG tail current density relative to baseline 1.000, 5 min exposure; for protection against hERG inhibition caused by Nilotinib (in words): in vitro, co-formulated with Nilotinib
Male Hartley guinea pigs = assay: Moxifloxacin-induced QTc prolongation in guinea pigs, oral phospholipids; type: in vivo, guinea pig; conditions: for mitigation of MF-induced QT prolongation (in words): oral gavage 2 hours before 20 mg/kg i.v. MF, PL to drug ratio 1:1 (FIG. 11A)
Sprague Dawley male rats = assay: Moxifloxacin-induced QTc prolongation in rats, oral complex pre-treatment; type: in vivo; conditions: rat; Moxifloxacin 20 mg/kg i.v. over 20 minutes
Text: Methods. The present inventors formulated the product in a complex mixture as an oral application in order to facilitate drug delivery in cancer patients being treated with oral LQTS inducing drugs. Preclinical evaluation of the oral application was done by instrumented Sprague Dawley male (250-300 g) rats. Cutaneous ECG leads were used to maximize T wave detection. The animals in groups of 3 rats were briefly anesthetized with a light dose of isoflurane, and a pre-treatment ECG was obtained to establish well-defined T waves, and to rule-out existing arrhythmic predispositions. Pre-treatment ECG profiles were normal.
A single dose of the oral complex in the ratio of 9:1 Moxifloxicin was vortexed continuously for 5 minutes to obtain an emulsion and immediately administered by gavage. Moxifloxacin, a broad spectrum antibiotic with documented LQTS activity, was formulated in DMSO and 2 hours afterwards infused intravenously (femoral canula) over 20 minutes at a starting dose of 2.8 mg/kg. ECGs were recorded from 5 minutes prior to and during the 20 minute infusion. Then the animals were dosed at 6.1 mg/kg over 20 minutes; then 20 mg/kg over 20 minutes. In a positive control group moxifloxacin was infused alone. In a second group of rats the complex was given orally 2 hours prior to the first dose of moxifloxacin. […]

HEK293 cell = conditions: 20 μM, 24 h incubation; cited from earlier work
rabbits = conditions: intravenous injection of 20 mg; cited from earlier work

T1 sequence (Q12809 whole entry): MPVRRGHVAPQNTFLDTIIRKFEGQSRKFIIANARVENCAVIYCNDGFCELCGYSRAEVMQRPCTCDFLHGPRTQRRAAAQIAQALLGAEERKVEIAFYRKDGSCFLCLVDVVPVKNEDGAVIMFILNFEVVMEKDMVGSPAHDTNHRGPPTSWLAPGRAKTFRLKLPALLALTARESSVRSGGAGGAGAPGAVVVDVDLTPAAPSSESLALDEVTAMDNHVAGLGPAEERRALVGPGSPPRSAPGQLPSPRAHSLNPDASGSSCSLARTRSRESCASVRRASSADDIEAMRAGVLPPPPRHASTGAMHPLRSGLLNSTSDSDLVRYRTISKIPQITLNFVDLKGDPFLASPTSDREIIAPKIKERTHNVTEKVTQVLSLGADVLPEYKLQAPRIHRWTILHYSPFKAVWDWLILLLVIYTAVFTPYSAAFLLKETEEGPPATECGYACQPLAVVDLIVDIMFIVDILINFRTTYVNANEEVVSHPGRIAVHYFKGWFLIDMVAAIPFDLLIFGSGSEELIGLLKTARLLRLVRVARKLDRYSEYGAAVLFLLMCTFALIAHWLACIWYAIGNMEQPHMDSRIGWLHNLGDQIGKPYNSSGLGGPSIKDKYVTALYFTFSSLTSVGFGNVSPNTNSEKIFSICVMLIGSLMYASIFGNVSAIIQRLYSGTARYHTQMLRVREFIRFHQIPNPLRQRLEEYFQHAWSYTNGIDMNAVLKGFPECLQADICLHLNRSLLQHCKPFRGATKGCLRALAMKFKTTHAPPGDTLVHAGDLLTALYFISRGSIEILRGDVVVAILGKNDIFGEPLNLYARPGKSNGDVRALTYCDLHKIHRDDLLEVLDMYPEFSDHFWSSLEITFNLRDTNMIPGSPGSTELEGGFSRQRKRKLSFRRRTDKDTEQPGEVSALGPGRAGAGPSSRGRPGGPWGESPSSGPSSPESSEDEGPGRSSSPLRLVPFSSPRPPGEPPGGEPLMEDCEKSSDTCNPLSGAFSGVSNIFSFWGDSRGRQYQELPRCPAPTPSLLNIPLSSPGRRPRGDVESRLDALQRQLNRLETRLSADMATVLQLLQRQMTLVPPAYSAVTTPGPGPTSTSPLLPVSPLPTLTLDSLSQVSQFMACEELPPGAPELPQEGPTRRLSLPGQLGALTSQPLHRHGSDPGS

## CCCCCCCCCC(=O)OC[C@@H](O)COP(=O)([O-])OCC(O)CO.[Na+] (mixture of isomers) [10:0 LysoPG, 1-decanoyl-2-hydroxy-sn-glycero-3-[phospho-rac-(1-glycerol)] sodium salt]
hERG [1]
  protective effect against hERG inhibition by Nilotinib (in words): prevented the inhibition
  inhibition of the hERG tail current (in words): did not cause any inhibition

## CCCCCCCCCCCC(=O)OC[C@@H](O)COP(=O)([O-])OCC(O)CO.[Na+] (mixture of isomers) [12:0 LysoPG, 1-dodecanoyl-2-hydroxy-sn-glycero-3-[phospho-rac-(1-glycerol)] sodium salt]
hERG [1]
  protective effect against hERG inhibition by Nilotinib (in words): prevented the inhibition
  inhibition of the hERG tail current (in words): did not cause any inhibition

## CCCCCCCCCCCCCC(=O)OC[C@@H](O)COP(=O)(O)OCC(O)CO (mixture of isomers) [14:0 LysoPG, 1-myristoyl-2-hydroxy-sn-glycero-3-[phospho-rac-(1-glycerol)] sodium salt]
hERG [1]; listed as 14:0 Lyso PG, sodium salt
  protective effect against hERG inhibition by Nilotinib (in words): higher protective
hERG [1]; sodium salt
  protective effect against hERG inhibition by Nilotinib (in words): prevented the inhibition; also recorded: most potent
hERG [1]
  inhibition of the hERG tail current (in words): did not cause any inhibition
hERG [2]
  inhibition of the hERG tail current density (in words): did not cause any inhibition
  Corrected Normalized Current Density: 1.124
  Normalized Current Density: 0.930
  protection against hERG inhibition caused by Nilotinib (in words): protects against hERG inhibition

## CCCCCCCCCCCCCCCC(=O)OC[C@@H](O)COP(=O)([O-])OCC(O)CO.[Na+] (mixture of isomers) [16:0 LysoPG, 1-palmitoyl-2-hydroxy-sn-glycero-3-[phospho-rac-(1-glycerol)] sodium salt]
hERG [1]; listed as 16:0 Lyso PG, sodium salt
  protective effect against hERG inhibition by Nilotinib (in words): higher protective
hERG [1]; sodium salt
  protective effect against hERG inhibition by Nilotinib (in words): prevented the inhibition; also recorded: most potent
hERG [1]
  inhibition of the hERG tail current (in words): did not cause any inhibition

## CCCCCCCCCCCCCCCCCC(=O)OC[C@@H](O)COP(=O)([O-])OCC(O)CO.[Na+] (mixture of isomers) [18:0 LysoPG, 1-stearoyl-2-hydroxy-sn-glycero-3-[phospho-rac-(1-glycerol)] sodium salt]
hERG [1]
  protective effect against hERG inhibition by Nilotinib (in words): prevented the inhibition
  inhibition of the hERG tail current (in words): did not cause any inhibition

## CCCCCCCCCCCCCC(=O)OCCOP(=O)(O)OCC(O)CO.N (centres unmarked) [14:0 EGPG, 2,3-dihydroxypropyl(2-[tetradecanoyloxy]ethyl)phosphate (ammonium salt)]
Male Hartley guinea pigs
  mitigation of MF-induced QT prolongation (in words): prevented the MF-induced QTs prolongation
hERG [1]; (ammonium salt)
  protective effect against hERG inhibition by Nilotinib (in words): prevented the inhibition; also recorded: higher protective
hERG [1]
  inhibition of the hERG tail current (in words): did not cause any inhibition

## CCCCCCCCCCCCCC(=O)OC[C@H](COP(=O)([O-])OCC(O)CO)OC(=O)CCCCCCCCCCCCC.[Na+] (some centres unmarked) [DMPG, 1,2-dimyristoyl-sn-glycero-3-[phosphoric-(1-glycerol)] (sodium salt)]
Male Hartley guinea pigs
  mitigation of MF-induced QT prolongation (in words): prevented the MF-induced QTs prolongation
hERG [2]
  inhibition of the hERG tail current density (in words): did not cause any inhibition
  Corrected Normalized Current Density: 0.994
  Normalized Current Density: 0.800
hERG [2]; (sodium salt)
  protection against hERG inhibition caused by Nilotinib (in words): protects against hERG inhibition; also recorded: abrogated the effects of nilotinib

## COc1c(N2C[C@@H]3CCCN[C@@H]3C2)c(F)cc2c(=O)c(C(=O)O)cn(C3CC3)c12 [Moxifloxacin]
Male Hartley guinea pigs; 20 mg/kg i.v. MF
  QTc prolongation: 35 ms
Sprague Dawley male rats
  QTc prolongation: 48 ms and 55 ms

## Cc1cn(-c2cc(NC(=O)c3ccc(C)c(Nc4nccc(-c5cccnc5)n4)c3)cc(C(F)(F)F)c2)cn1 [Nilotinib, reference compound]
hERG [1]; human, HEK 293 cells stably transfected with hERG, pH 7.4, read-out: inhibition of the hERG tail current
  inhibition at 5 min, 1 μM: 70%

## COc1cc(/C=C/C(=O)/C=C(O)/C=C/c2ccc(O)c(OC)c2)ccc1O [curcumin, Curcumin]
HEK293 cell
  HEK293 cell viability: reduced the HEK293 cell viability
rabbits
  cardiac repolarization manifested by QTc values: did not affect the cardiac repolarization
